Data published in patent US20040019043A1, “Thiomolybdate analogues and uses thereof” (priority 2002, published 2004).
Marks after values point to notes of the source that are not given here.

Assays:
[1] = Chemical Stability Data for Analogs
[2] = Animal weight and hematocrit in 3LL tumor-bearing mice
Experimental: (§1) Animals are followed by weighing, palpation and measurement of tumor size. […] A positive control compound, for example cyclophosphamide at 170 mg/kg/injection is given every 6 days. Results computed include mean animal weight, tumor size, tumor weight and survival time. For confirmed therapeutic activity, the test composition should be tested in two multi-dose assays. Female C57/BL mice were inoculated with 1×10^6 Lewis Lung carcinoma (3LL) cells subcutaneously in the middle of the back. […] Cyclophosphamide (170 mg/kg given every 6 days subcutaneously beginning on day 3 after tumor cell inoculation) was used as a control. Tumor volumes and animal weights were measured 2×/week and the animals euthanized when the volume of the tumors in the control group reached an average of 2000 mm^3. The ratio (T/C) of the tumor volumes in the treated group (T) to the control group (C) were determined. Terminal cardiac bleeds were obtained and analyzed for red blood cell concentration (hematocrit, HCT).

[3] = test system: Lewis Lung carcinoma (3LL) cells; assay: In Vivo 3LL Lewis Lung Carcinoma: Primary Tumor Growth; settings: 3LL s.c. in female C57/BL mice; TM and CHTM 50 mg/kg po by gavage from day after inoculation; cyclophosphamide 170 mg/kg s.c. every 6 days from day 3
Experimental: The tumor model used was 3LL JF in C57BL/6 mice. […] The test compound is administered daily for 11-25 days.
as §1

[4] = After 10 days, Oven to room conditions

C[N+]1(C)CCCC1.C[N+]1(C)CCCC1.[S]=[Mo](=[S])([S-])[S-] [1,1-dimethylpyrrolidinium, Tetrathiomolybdate, bis(1,1-dimethylpyrrolidinium)]
% remaining [1, 4]: 70%

Cc1cc[n+](C)cc1 [1,4-dimethylpyridinium, Tetrathiomolybdate, bis(1,4-dimethylpyridinium)]
% remaining [1, 4]: 32%

CCn1cc[n+](C)c1.CCn1cc[n+](C)c1.[S]=[Mo](=[S])([S-])[S-] [1-ethyl-3-methyl-1H-imidazolium, Tetrathiomolybdate, bis(1-ethyl-3-methyl-1H-imidazolium)]
% remaining [1, 4]: 75%

[NH4+].[NH4+].[SH-].[SH-].[S]=[Mo]=[S] [Ammonium, ammonium tetrathiomolybdate]
HCT (hematocrit, red blood cell concentration) ([2]; mouse, in vivo): 35% | MOUSE WEIGHT % of initial ([2]; mouse, in vivo): 93%* | T/C (ratio of tumor volumes in treated group to control group) [3]: 0.59 | % remaining ([1]; *9 days, different study, Oven to room conditions): *48%

C[N+](C)(C)CCO [Choline, Tetrathiomolybdate, bis(choline)]
HCT (hematocrit, red blood cell concentration) ([2]; mouse, in vivo): 35% | MOUSE WEIGHT % of initial ([2]; mouse, in vivo): 103% | % remaining [1, 4]: 62%

O=P1(N(CCCl)CCCl)NCCCO1 (stereo not shown) [Cyclophosphamide]
MOUSE WEIGHT % of initial ([2]; 3LL tumor-bearing female C57/BL mice, same dosing as T/C): 105% | HCT (hematocrit, red blood cell concentration) ([2]; terminal cardiac bleeds, normal is 45%): 40% | T/C (ratio of tumor volumes in treated group to control group) [3]: 0.74

CC[N+](C)(CC)CC.CC[N+](C)(CC)CC.[S]=[Mo](=[S])([S-])[S-] [Methyltriethylammonium, Tetrathiomolybdate, bis(triethylmethyl ammonium)]
% remaining [1, 4]: 63%

CC[N+](CC)(CC)c1ccccc1.CC[N+](CC)(CC)c1ccccc1.[S]=[Mo](=[S])([S-])[S-] [Triethylphenylammonium, Tetrathiomolybdate, bis(triethylphenyl ammonium)]
% remaining [1, 4]: 76%

C[N+](C)(C)Cc1ccccc1.C[N+](C)(C)Cc1ccccc1.[S]=[Mo](=[S])([S-])[S-] [Trimethylbenzylammonium, Tetrathiomolybdate, bis(benzyltrimethylammonium)]
% remaining [1, 4]: 94%

C[N+](C)(C)c1ccccc1.C[N+](C)(C)c1ccccc1.[S]=[Mo](=[S])([S-])[S-] [Trimethylphenylammonium, Tetrathiomolybdate, bis(phenyltrimethylammonium)]
% remaining ([1]; 7 days, 74-77% RH, RT): 98% | % remaining [1, 4]: 85%

C[N+](C)(Cc1ccccc1)c1ccccc1.C[N+](C)(Cc1ccccc1)c1ccccc1.[S]=[Mo](=[S])([S-])[S-] [bis(benzylphenyldimethylammonium), Tetrathiomolybdate, bis(benzylphenyldimethylammonium)]
% remaining ([1]; 7 days, 74-77% RH, RT): 45%

C[N+](C)(C)CC1CC1.C[N+](C)(C)CC1CC1.[S]=[Mo](=[S])([S-])[S-] [bis(cyclopropylmethyltrimethylammonium), Tetrathiomolybdate, bis(cyclopropylmethyltrimethyl ammonium)]
% remaining ([1]; 7 days, 74-77% RH, RT): 86%

C=C[N+](C)(C)C.C=C[N+](C)(C)C.[S]=[Mo](=[S])([S-])[S-] [bis(vinyltrimenthyammonium), Tetrathiomolybdate, bis(vinyltrimethyl ammonium)]
% remaining ([1]; 7 days, 74-77% RH, RT): 72%

C[N+](C)(C)CCCC[N+](C)(C)C [butane-1,4-bis(trimethylammonium)]
% remaining [1, 4]: 40%

C[N+](C)(C)CCCCCC[N+](C)(C)C.[S]=[Mo](=[S])([S-])[S-] [hexane-1,6-bis(trimethylammonium), Tetrathiomolybdate, hexane-1,6-bis(trimethylammonium)]
% remaining ([1]; 7 days, 74-77% RH, RT): 94%

C[N+](C)(C)CCCCC[N+](C)(C)C [pentane-1,5-bis(trimethylammonium), Tetrathiomolybdate, pentane-1,5-bis(trimethylammonium)]
% remaining [1, 4]: 86%

Ethylenebis(trimethylammonium)
% remaining [1, 4]: 40%
